For this assay, the target named is ADP-induced human platelet aggregation (Homo sapiens, UniProt P05106+P08514). Briefly: standard aggregation inhibition assay (ADP-induced human platelet aggregation). The format is cell-based. Conditions: for IC50: ADP-induced human platelet aggregation, read-out: Appr, IC50; for IC20: PAI activity, Example 15, read-out: Appr.IC20. The source says:
2. Standard assays directly applied to platelet aggregation, such as those described by Gann, Z.-R., et al., J Biol Chem (1988) 263:19827-19832; Huang, T. F., et al., J Biol Chem (1987) 262:16157-16163; Biochemistry (1989) 28:661-666, cited above and incorporated herein by reference;

*1 amine or outer side, *2 acyl side, *3 side chain or, on linkers, in order; H or OH if unused. Where a SMILES comes first, the peptide text is derived from it. Bridges are numbered along the chain shown (N, C = ends). [ ]: non-standard residue; d: D form. X1 = N=C(NCCCC[C@H](N[*:1])C(=O)[*:2])c1ccccc1; X2 = CC(=N)NCCCC[C@H](N[*:1])C(=O)[*:2]; NMeR = CN[C@@H](CCCNC(=N)N)C(=O)O; hArg = N=C(N)NCCCC[C@H](N)C(=O)O; NMeL = CN[C@@H](CC(C)C)C(=O)O; Pen = CC(C)(S)[C@H](N)C(=O)O; Pip = O=C(O)[C@@H]1CCCCN1; NMeA = CN[C@@H](C)C(=O)O; Thz = O=C(O)[C@@H]1CSCN1; Aib = CC(C)(N)C(=O)O; βAla = NCCC(=O)O; Mpa = O=C(O)CCS; Sar = CNCC(=O)O

ADP-induced human platelet aggregation, sequence (P08514 32-1039): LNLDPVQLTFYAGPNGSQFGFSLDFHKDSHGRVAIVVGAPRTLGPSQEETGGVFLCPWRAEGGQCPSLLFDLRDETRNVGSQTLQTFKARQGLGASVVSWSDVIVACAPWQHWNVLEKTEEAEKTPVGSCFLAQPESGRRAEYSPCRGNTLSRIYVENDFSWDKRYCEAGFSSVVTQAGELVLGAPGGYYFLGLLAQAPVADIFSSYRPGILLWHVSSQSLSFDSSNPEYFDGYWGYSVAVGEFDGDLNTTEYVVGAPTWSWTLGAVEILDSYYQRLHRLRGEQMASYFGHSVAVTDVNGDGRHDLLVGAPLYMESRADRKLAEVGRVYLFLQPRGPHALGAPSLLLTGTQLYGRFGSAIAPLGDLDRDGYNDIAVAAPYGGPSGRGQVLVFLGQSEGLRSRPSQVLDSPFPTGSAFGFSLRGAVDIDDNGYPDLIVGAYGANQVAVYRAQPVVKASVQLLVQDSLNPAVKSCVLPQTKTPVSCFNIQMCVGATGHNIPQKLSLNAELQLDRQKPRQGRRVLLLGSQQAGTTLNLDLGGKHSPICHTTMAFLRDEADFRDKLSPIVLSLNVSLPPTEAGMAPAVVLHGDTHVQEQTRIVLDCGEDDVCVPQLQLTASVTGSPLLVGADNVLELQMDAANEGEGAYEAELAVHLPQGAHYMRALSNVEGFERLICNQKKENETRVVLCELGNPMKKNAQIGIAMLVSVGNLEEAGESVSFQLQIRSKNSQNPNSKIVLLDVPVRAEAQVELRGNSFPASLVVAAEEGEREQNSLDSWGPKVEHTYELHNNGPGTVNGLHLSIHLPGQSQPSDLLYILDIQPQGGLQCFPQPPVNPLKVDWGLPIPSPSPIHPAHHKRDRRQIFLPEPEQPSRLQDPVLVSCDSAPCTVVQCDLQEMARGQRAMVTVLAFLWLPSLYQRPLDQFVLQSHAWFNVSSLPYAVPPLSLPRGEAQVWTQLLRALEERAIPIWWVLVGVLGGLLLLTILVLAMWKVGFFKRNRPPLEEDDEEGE
ADP-induced human platelet aggregation, sequence (P05106 27-788): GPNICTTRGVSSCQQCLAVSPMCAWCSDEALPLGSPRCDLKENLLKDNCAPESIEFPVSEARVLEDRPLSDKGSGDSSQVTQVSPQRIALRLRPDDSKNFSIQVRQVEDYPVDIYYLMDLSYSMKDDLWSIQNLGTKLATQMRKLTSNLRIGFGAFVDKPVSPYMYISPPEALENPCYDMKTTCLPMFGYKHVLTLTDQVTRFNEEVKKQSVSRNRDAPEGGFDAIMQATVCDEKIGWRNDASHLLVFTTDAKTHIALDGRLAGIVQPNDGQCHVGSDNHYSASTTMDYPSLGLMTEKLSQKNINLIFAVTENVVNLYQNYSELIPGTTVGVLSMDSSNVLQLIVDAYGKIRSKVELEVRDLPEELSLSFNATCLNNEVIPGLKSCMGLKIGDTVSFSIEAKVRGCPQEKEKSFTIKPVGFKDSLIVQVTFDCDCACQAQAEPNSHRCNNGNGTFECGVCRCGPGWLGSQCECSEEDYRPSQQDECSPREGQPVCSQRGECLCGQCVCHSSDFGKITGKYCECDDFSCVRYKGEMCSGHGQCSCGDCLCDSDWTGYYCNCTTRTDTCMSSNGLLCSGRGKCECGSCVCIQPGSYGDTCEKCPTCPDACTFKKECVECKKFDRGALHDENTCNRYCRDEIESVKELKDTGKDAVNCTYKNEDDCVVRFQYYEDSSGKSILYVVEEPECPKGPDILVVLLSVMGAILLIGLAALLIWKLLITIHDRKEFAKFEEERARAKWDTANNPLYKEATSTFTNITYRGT

Turning to `CC1(C)SSCCC(=O)N[C@@H](CCCCN)C(=O)NCC(=O)N[C@@H](CC(=O)O)C(=O)N[C@@H](Cc2c[nH]c3ccccc23)C(=O)N2CCC[C@@H]2C(=O)N[C@@H]1C(N)=O` [Analog #53, Mpr-K-G-D-W-P.dagger.-Pen-NH2] ([Mpa]KGDW[dP][Pen]-NH2; disulfide 1-7), the half-inhibitory concentration (IC50) was more than 200000 nM.

Regarding `CC1(C)SSCCC(=O)N[C@@H](CCCCN)C(=O)NCC(=O)N[C@H](CC(=O)O)C(=O)N[C@@H](Cc2c[nH]c3ccccc23)C(=O)N2CCC[C@H]2C(=O)N[C@@H]1C(N)=O` [Analog #54, Mpr-K-G-D.dagger.-W-P-Pen-NH2] ([Mpa]KG[dD]WP[Pen]-NH2; disulfide 1-7), the IC50 is more than 100000 nM.

In the case of `NCCCC[C@@H]1NC(=O)CCSSC[C@@H](C(N)=O)NC(=O)[C@@H]2CSCN2C(=O)[C@H](Cc2c[nH]c3ccccc23)NC(=O)[C@H](CC(=O)O)NC(=O)CNC1=O` [Analog #55, Mpr-K-G-D-W-(Thz)-C-NH2] ([Mpa]KGDW[Thz]C-NH2; disulfide 1-7), the IC50 was found to be 2000 nM.

For `CC1(C)SSCCC(=O)N[C@@H](CCCCN)C(=O)NCC(=O)N[C@@H](CC(=O)O)C(=O)N[C@@H](Cc2c[nH]c3ccccc23)C(=O)N2CCCC[C@H]2C(=O)N[C@@H]1C(N)=O` [Analog #59, Mpr-K-G-D-W-(Pip)-Pen-NH2] ([Mpa]KGDW[Pip][Pen]-NH2; disulfide 1-7), the IC50 stood at 1000 nM.

Take `NCCCC[C@@H]1NC(=O)CCSSC[C@H](C(N)=O)NC(=O)[C@@H]2CCCN2C(=O)[C@H](Cc2c[nH]c3ccccc23)NC(=O)[C@H](CC(=O)O)NC(=O)CNC1=O` [Analog #61, Mpr-K-G-D-W-P-C.dagger.-NH2] ([Mpa]KGDWP[dC]-NH2; disulfide 1-7): the half-inhibitory concentration (IC50) stood at 15000 nM.

On to `CC1(C)SSCCC(=O)N[C@H](CCCCN)C(=O)NCC(=O)N[C@@H](CC(=O)O)C(=O)N[C@@H](Cc2c[nH]c3ccccc23)C(=O)N2CCC[C@H]2C(=O)N[C@@H]1C(N)=O` [Analog #62, Mpr-K.dagger.-G-D-W-P-Pen-NH2] ([Mpa][dK]GDWP[Pen]-NH2; disulfide 1-7), for which the IC50 came out at 2500 nM.

With `CC1(C)SSCCC(=O)N[C@@H](CCCCNC(=N)N)C(=O)NCC(=O)N[C@@H](CC(=O)O)C(=O)N[C@@H](Cc2c[nH]c3ccccc23)C(=O)N2CCC[C@H]2C(=O)N[C@@H]1C(N)=O` [Analog #63, Mpr-(Har)-G-D-W-P-Pen-NH2] ([Mpa][hArg]GDWP[Pen]-NH2; disulfide 1-7), the IC50 was found to be 100 nM.

For the molecule `CC(=N)NCCCC[C@@H]1NC(=O)CCSSC[C@@H](C(N)=O)NC(=O)[C@@H]2CCCN2C(=O)[C@H](Cc2c[nH]c3ccccc23)NC(=O)[C@H](CC(=O)O)NC(=O)CNC1=O` [Analog #64, Mpr-(Acetimidyl-Lys)-G-D-W-P-C-NH2] ([Mpa][X2]GDWPC-NH2; disulfide 1-7), the IC50 was found to be 250 nM.

For `CC(=N)NCCCC[C@@H]1NC(=O)CCSSC(C)(C)[C@@H](C(N)=O)NC(=O)[C@@H]2CCCN2C(=O)[C@H](Cc2c[nH]c3ccccc23)NC(=O)[C@H](CC(=O)O)NC(=O)CNC1=O` [Analog #69, Mpr-(Acetimidyl-Lys)-G-D-W-P-Pen-NH2] ([Mpa][X2]GDWP[Pen]-NH2; disulfide 1-7), the IC50 came to 500 nM.

Turning to `N=C(NCCCC[C@@H]1NC(=O)CCSSC[C@@H](C(N)=O)NC(=O)[C@@H]2CCCN2C(=O)[C@H](Cc2c[nH]c3ccccc23)NC(=O)[C@H](CC(=O)O)NC(=O)CNC1=O)c1ccccc1` [Analog #70, Mpr-(Phenylimidyl-Lys)-G-D-W-P-C-NH2] ([Mpa][X1]GDWPC-NH2; disulfide 1-7), the half-maximal inhibitory concentration (IC50) came out at 500 nM.

Consider `CN1CC(=O)N[C@@H](CC(=O)O)C(=O)N[C@@H](Cc2c[nH]c3ccccc23)C(=O)N2CCC[C@H]2C(=O)N[C@H](C(N)=O)C(C)(C)SSCCC(=O)N[C@@H](CCCCNC(=N)N)C1=O` [Analog #71, Mpr-Har-Sar-D-W-P-Pen-NH2] ([Mpa][hArg][Sar]DWP[Pen]-NH2; disulfide 1-7), for which the IC50 was 2500 nM.

`CC1(C)SSCCC(=O)N[C@@H](CCCCNC(=N)c2ccccc2)C(=O)NCC(=O)N[C@@H](CC(=O)O)C(=O)N[C@@H](Cc2c[nH]c3ccccc23)C(=O)N2CCC[C@H]2C(=O)N[C@@H]1C(N)=O` [Analog #72, Mpr-(Phenylimidyl-Lys)-G-D-W-P-Pen-NH2] ([Mpa][X1]GDWP[Pen]-NH2; disulfide 1-7): the 50% inhibitory concentration (IC50) came out at 500 nM.

In the case of `N=C(N)NCCCC[C@@H]1NC(=O)[C@@H]2CCCN2C(=O)CCSSC[C@@H](C(N)=O)NC(=O)[C@@H]2CCCN2C(=O)[C@H](Cc2c[nH]c3ccccc23)NC(=O)[C@H](CC(=O)O)NC(=O)CNC1=O` [PAI 80, Mpr-P-Har-G-D-W-P-C-NH2] ([Mpa]P[hArg]GDWPC-NH2; disulfide 1-8), the IC20 stood at 1290 nM.

In the case of `N=C(N)NCCCC[C@@H]1NC(=O)CNC(=O)CCSSC[C@@H](C(N)=O)NC(=O)[C@@H]2CCCN2C(=O)[C@H](Cc2c[nH]c3ccccc23)NC(=O)[C@H](CC(=O)O)NC(=O)CNC1=O` [PAI 81, Mpr-G-Har-G-D-W-P-C-NH2] ([Mpa]G[hArg]GDWPC-NH2; disulfide 1-8), the 20% effect concentration (IC20) stood at 7470 nM.

For `CC1(C)NC(=O)CCSSC[C@@H](C(N)=O)NC(=O)[C@@H]2CCCN2C(=O)[C@H](Cc2c[nH]c3ccccc23)NC(=O)[C@H](CC(=O)O)NC(=O)CNC(=O)[C@H](CCCCNC(=N)N)NC1=O` [PAI 83, Mpr-Aib-Har-G-D-W-P-C-NH2] ([Mpa][Aib][hArg]GDWPC-NH2; disulfide 1-8), the IC20 came out at 2200 nM.

Take `CN1C(=O)CCSSC[C@@H](C(N)=O)NC(=O)[C@@H]2CCCN2C(=O)[C@H](Cc2c[nH]c3ccccc23)NC(=O)[C@H](CC(=O)O)NC(=O)CNC(=O)[C@H](CCCCNC(=N)N)NC(=O)[C@@H]1CCCNC(=N)N` [PAI 84, Mpr-(N-Me-Arg)-Har-G-D-W-P-C-NH2] ([Mpa][NMeR][hArg]GDWPC-NH2; disulfide 1-8): the IC20 is 250 nM.

For the molecule `C[C@H]1NC(=O)CCSSC[C@@H](C(N)=O)NC(=O)[C@@H]2CCCN2C(=O)[C@H](Cc2c[nH]c3ccccc23)NC(=O)[C@H](CC(=O)O)NC(=O)CNC(=O)[C@H](CCCCNC(=N)N)NC1=O` [PAI 86, Mpr-A.dagger.-Har-G-D-W-P-C-NH2] ([Mpa][dA][hArg]GDWPC-NH2; disulfide 1-8), the IC20 came out at 1150 nM.

For the molecule `N=C(N)NCCCC[C@@H]1NC(=O)CCNC(=O)CCSSC[C@@H](C(N)=O)NC(=O)[C@@H]2CCCN2C(=O)[C@H](Cc2c[nH]c3ccccc23)NC(=O)[C@H](CC(=O)O)NC(=O)CNC1=O` [PAI 87, Mpr-(β-Ala)-Har-G-D-W-P-C-NH2] ([Mpa][βAla][hArg]GDWPC-NH2; disulfide 1-8), the IC20 amounted to 920 nM.

On to `CC(C)C[C@H]1C(=O)N[C@@H](CCCCNC(=N)N)C(=O)NCC(=O)N[C@@H](CC(=O)O)C(=O)N[C@@H](Cc2c[nH]c3ccccc23)C(=O)N2CCC[C@H]2C(=O)N[C@H](C(N)=O)CSSCCC(=O)N1C` [PAI 88, Mpr-(N-Me-Leu)-Har-G-D-W-P-C-NH2] ([Mpa][NMeL][hArg]GDWPC-NH2; disulfide 1-8), for which the concentration for an effect of 20% (IC20) was 840 nM.

`C[C@H]1C(=O)N[C@@H](CCCCNC(=N)N)C(=O)NCC(=O)N[C@@H](CC(=O)O)C(=O)N[C@@H](Cc2c[nH]c3ccccc23)C(=O)N2CCC[C@H]2C(=O)N[C@H](C(N)=O)CSSCCC(=O)N1C` [PAI 89, Mpr-(N-Me-Ala)-Har-G-D-W-P-C-NH2] ([Mpa][NMeA][hArg]GDWPC-NH2; disulfide 1-8): the IC20 amounted to 620 nM.

For the molecule `CN1CC(=O)N[C@@H](CCCCNC(=N)N)C(=O)NCC(=O)N[C@@H](CC(=O)O)C(=O)N[C@@H](Cc2c[nH]c3ccccc23)C(=O)N2CCC[C@H]2C(=O)N[C@H](C(N)=O)CSSCCC1=O` [PAI 90, Mpr-Sar-Har-G-D-W-P-C-NH2] ([Mpa][Sar][hArg]GDWPC-NH2; disulfide 1-8), the IC20 amounted to 270 nM.

In the case of `CC(C)[C@@H]1NC(=O)CCSSC[C@@H](C(N)=O)NC(=O)[C@@H]2CCCN2C(=O)[C@H](Cc2c[nH]c3ccccc23)NC(=O)[C@H](CC(=O)O)NC(=O)CNC(=O)[C@H](CCCCNC(=N)N)NC1=O` [PAI 91, Mpr-V-Har-G-D-W-P-C-NH2] ([Mpa]V[hArg]GDWPC-NH2; disulfide 1-8), the IC20 was determined as 350 nM.

For `N=C(N)NCCCC[C@@H]1NC(=O)[C@H](CO)NC(=O)CCSSC[C@@H](C(N)=O)NC(=O)[C@@H]2CCCN2C(=O)[C@H](Cc2c[nH]c3ccccc23)NC(=O)[C@H](CC(=O)O)NC(=O)CNC1=O` [PAI 92, Mpr-S-Har-G-D-W-P-C-NH2] ([Mpa]S[hArg]GDWPC-NH2; disulfide 1-8), the IC20 was found to be 240 nM.

Take `C[C@@H]1NC(=O)[C@@H]2CCCN2C(=O)[C@H](Cc2c[nH]c3ccccc23)NC(=O)[C@H](CC(=O)O)NC(=O)CNC(=O)[C@H](CCCCNC(=N)N)NC(=O)CCSSC[C@@H](C(N)=O)NC1=O` [PAI 93, Mpr-Har-G-D-W-P-A-C-NH2] ([Mpa][hArg]GDWPAC-NH2; disulfide 1-8): the IC20 amounted to 3330 nM.

For the molecule `C[C@H]1C(=O)N[C@H](C(N)=O)CSSCCC(=O)N[C@@H](CCCCNC(=N)N)C(=O)NCC(=O)N[C@@H](CC(=O)O)C(=O)N[C@@H](Cc2c[nH]c3ccccc23)C(=O)N2CCC[C@H]2C(=O)N1C` [PAI 94, Mpr-Har-G-D-W-P-(N-Me-Ala)-C-NH2] ([Mpa][hArg]GDWP[NMeA]C-NH2; disulfide 1-8), the IC20 turned out to be 1460 nM.

For the molecule `N=C(N)NCCCC[C@@H]1NC(=O)CCSSC[C@@H](C(N)=O)NC(=O)CNC(=O)[C@@H]2CCCN2C(=O)[C@H](Cc2c[nH]c3ccccc23)NC(=O)[C@H](CC(=O)O)NC(=O)CNC1=O` [PAI 95, Mpr-Har-G-D-W-P-G-C-NH2] ([Mpa][hArg]GDWPGC-NH2; disulfide 1-8), the IC20 came to 8660 nM.

On to `C[C@H]1NC(=O)[C@@H]2CCCN2C(=O)[C@H](Cc2c[nH]c3ccccc23)NC(=O)[C@H](CC(=O)O)NC(=O)CNC(=O)[C@H](CCCCNC(=N)N)NC(=O)CCSSC[C@@H](C(N)=O)NC1=O` [PAI 96, Mpr-Har-G-D-W-P-A.dagger.-C-NH2] ([Mpa][hArg]GDWP[dA]C-NH2; disulfide 1-8), for which the concentration for an effect of 20% (IC20) came to 230 nM.

One may read the IC50 as the point on the concentration scale where inhibition reaches its midpoint. The IC20 is the point of the concentration-response curve where the effect stands at 20%.

Source of the values: patent publication US5747447A, “Stable polypeptide composition” (COR Therapeutics, priority 1995, dated 1998).
